Patent publication US10526323B2, “Indazole and azaindazole substituted compounds as mGluR4 allosteric potentiators, compositions, and methods of treating neurological dysfunction” (Vanderbilt University, priority 2015, dated 2020)
pEC50: −log10 of the molar value.

Target: mGluR4 (UniProt Q14833)
Assay: mGluR4 potentiation assay: increase in response to an EC20 concentration of agonist (species not given)
Type: cell-based
Conditions: EC50 for potentiation of mGluR4; table does not state human or rat
In short: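 Human mGluR4 was expressed in CHO cells read with a Ca2+-sensitive dye; rat mGluR4 was co-expressed with GIRK in […] read by thallium flux. Potentiation is the rise over agonist-alone response, with EC50 and maximal potentiation from non-linear fits.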

| Structure (SMILES) | pEC50 |
| --- | --- |
| c1cnc2c(Nc3cnc4cnn(CC5CCC5)c4c3)n[nH]c2n1 [Example 149, N-(1-(cyclobutylmethyl)-1H-pyrazolo[4,3-b]pyridin-6-yl)-1H-pyrazolo[3,4-b]pyrazin-3-amine] | < 5.00 |
| Cc1cc(Cn2ncc3ncc(Nc4n[nH]c5nccnc45)cc32)no1 [Example 143, N-(1-((5-methylisoxazol-3-yl)methyl)-1H-pyrazolo[4,3-b]pyridin-6-yl)-1H-pyrazolo[3,4-b]pyrazin-3-amine] | < 5.00 |
| Cn1nc(C(F)(F)F)c2cc(Nc3n[nH]c4cccnc34)ccc21 [Example 110, N-(1-methyl-3-(trifluoromethyl)-1H-indazol-5-yl)-1H-pyrazolo[4,3-b]pyridin-3-amine] | 6.92 |
| CCC(C)n1nc2ccc(Nc3n[nH]c4cccnc34)cc2c1C (stereo not shown) [Example 105, N-(2-(sec-butyl)-3-methyl-2H-indazol-5-yl)-1H-pyrazolo[4,3-b]pyridin-3-amine] | < 5.00 |
| Cc1nn(C)c2ccc(Nc3n[nH]c4cccnc34)cc12 [Example 108, N-(1,3-dimethyl-1H-indazol-5-yl)-1H-pyrazolo[4,3-b]pyridin-3-amine] | 6.46 |
| Clc1cc(Nc2n[nH]c3nccnc23)cc2cnn(CC3CCC3)c12 [Example 64, N-(7-chloro-1-(cyclobutylmethyl)-1H-indazol-5-yl)-1H-pyrazolo[3,4-b]pyrazin-3-amine] | 7.17 |
| Cc1nn(CC2CCC2)c2ccc(Nc3n[nH]c4cccnc34)cc12 [Example 72, N-(1-(cyclobutylmethyl)-3-methyl-1H-indazol-5-yl)-1H-pyrazolo[4,3-b]pyridin-3-amine] | 7.33 |
| Cn1cc2c(Cl)cc(Nc3n[nH]c4nccnc34)cc2n1 [Example 10, N-(4-chloro-2-methyl-2H-indazol-6-yl)-1H-pyrazolo[3,4-b]pyrazin-3-amine] | 6.29 |
| Cc1nn(CCN2CCOCC2)c2ccc(Nc3n[nH]c4cccnc34)cc12 [Example 132, N-(3-methyl-1-(2-morpholinoethyl)-1H-indazol-5-yl)-1H-pyrazolo[4,3-b]pyridin-3-amine] | 6.48 |
| Cn1nc(Cl)c2ccc(Nc3n[nH]c4cccnc34)cc21 [Example 31, N-(3-chloro-1-methyl-1H-indazol-6-yl)-1H-pyrazolo[4,3-b]pyridin-3-amine] | 6.77 |
| Cn1nc(OCC2CCCCO2)c2ccc(Nc3n[nH]c4cccnc34)cc21 (stereo not shown) [Example 181, N-(1-methyl-3-((tetrahydro-2H-pyran-2-yl)methoxy)-1H-indazol-6-yl)-1H-pyrazolo[4,3-b]pyridin-3-amine] | 7.06 |
| CN1CCN(C(=O)c2nn(C)c3cc(Nc4n[nH]c5cccnc45)ccc23)CC1 [Example 166, (4-methylpiperazin-1-yl)-[1-methyl-6-(1H-pyrazolo[4,3-b]pyridin-3-ylamino)indazol-3-yl]methanone] | < 5.00 |
| CC1CCC(=O)N1c1nn(C)c2cc(Nc3n[nH]c4cccnc34)ccc12 (stereo not shown) [Example 42, 1-(6-((1H-pyrazolo[4,3-b]pyridin-3-yl)amino)-1-methyl-1H-indazol-3-yl)-5-methylpyrrolidin-2-one] | 5.40 |
| Cc1nn(Cc2noc3ccccc23)c2ccc(Nc3n[nH]c4cccnc34)cc12 [Example 92, N-(1-(benzo[d]isoxazol-3-ylmethyl)-3-methyl-1H-indazol-5-yl)-1H-pyrazolo[4,3-b]pyridin-3-amine] | 7.09 |
| Cn1nc(-c2ccc(=O)[nH]c2)c2ccc(Nc3n[nH]c4cccnc34)cc21 [Example 179, 5-[1-methyl-6-(1H-pyrazolo[4,3-b]pyridin-3-ylamino)indazol-3-yl]-1H-pyridin-2-one] | 5.57 |
| Cn1nc(C(=O)NC2CC(F)C2)c2ccc(Nc3n[nH]c4cccnc34)cc21 (stereo not shown) [Example 175, N-(3-fluorocyclobutyl)-1-methyl-6-(1H-pyrazolo[4,3-b]pyridin-3-ylamino)indazole-3-carboxamide] | 6.10 |
| CC(C)CC1CC(=O)N(c2nn(C)c3cc(Nc4n[nH]c5cccnc45)ccc23)C1 (stereo not shown) [Example 36, N-(6-((1H-pyrazolo[4,3-b]pyridin-3-yl)amino)-1-methyl-1H-indazol-3-yl)-4-isobutylpyrrolidin-2-one] | 6.28 |
| COc1ccc(-c2nn(C)c3cc(Nc4n[nH]c5cccnc45)ccc23)cn1 [Example 180, N-[3-(6-methoxy-3-pyridyl)-1-methyl-indazol-6-yl]-1H-pyrazolo[4,3-b]pyridin-3-amine] | < 5.00 |
| CCCCCn1nc(C)c2cc(Nc3n[nH]c4nccnc34)ccc21 [Example 95, N-(3-methyl-1-pentyl-1H-indazol-5-yl)-1H-pyrazolo[3,4-b]pyrazin-3-amine] | 7.46 |
| CC(C)COc1nn(C)c2cc(Nc3n[nH]c4cccnc34)ccc12 [Example 244, N-(3-isobutoxy-1-methyl-1H-indazol-6-yl)-1H-pyrazolo[4,3-b]pyridin-3-amine] | 6.64 |
| Cc1nn(CCC(C)Cl)c2ccc(Nc3n[nH]c4cccnc34)cc12 (stereo not shown) [Example 134, N-(1-(3-chlorobutyl)-3-methyl-1H-indazol-5-yl)-1H-pyrazolo[4,3-b]pyridin-3-amine] | 7.11 |

Continued, values first:

| pEC50 | Structure (SMILES) |
| --- | --- |
| < 5.00 | Clc1nn(CC2CC2)c2ccc(Nc3n[nH]c4cccnc34)cc12 [Example 284, N-(3-chloro-1-(cyclopropylmethyl)-1H-indazol-5-yl)-1H-pyrazolo[4,3-b]pyridin-3-amine] |
| 6.36 | Cc1nn(C2CCCCC2)c2ncc(Nc3n[nH]c4cccnc34)cc12 [Example 260, 1-cyclohexyl-3-methyl-N-(1H-pyrazolo[4,3-b]pyridin-3-yl)pyrazolo[3,4-b]pyridin-5-amine] |
| 5.73 | Cn1nc(S(C)(=O)=O)c2ccc(Nc3n[nH]c4cccnc34)cc21 [Example 186, N-(1-methyl-3-(methylsulfonyl)-1H-indazol-6-yl)-1H-pyrazolo[4,3-b]pyridin-3-amine] |
| 5.63 | COCCn1nc(C)c2cc(Nc3n[nH]c4cccnc34)cnc21 [Example 261, 1-(2-methoxyethyl)-3-methyl-N-(1H-pyrazolo[4,3-b]pyridin-3-yl)pyrazolo[3,4-b]pyridin-5-amine] |
| 6.77 | CCCOc1nn(C)c2cc(Nc3n[nH]c4cccnc34)ccc12 [Example 239, N-(1-methyl-3-propoxy-1H-indazol-6-yl)-1H-pyrazolo[4,3-b]pyridin-3-amine] |
| < 5.00 | Clc1nn(C2CCC2)c2ccc(Nc3n[nH]c4cccnc34)cc12 [Example 276, N-(3-chloro-1-cyclobutyl-1H-indazol-5-yl)-1H-pyrazolo[4,3-b]pyridin-3-amine] |
| < 5.00 | Cc1nn(CCO)c2ncc(Nc3n[nH]c4cccnc34)cc12 [Example 256, 2-[3-methyl-5-(1H-pyrazolo[4,3-b]pyridin-3-ylamino)pyrazolo[3,4-b]pyridin-1-yl]ethanol] |
| < 5.00 | Cc1nn(C)c2ncc(Nc3n[nH]c4ccccc34)cc12 [Example 271, N-(1H-indazol-3-yl)-1,3-dimethyl-1H-pyrazolo[3,4-b]pyridin-5-amine] |
| 5.43 | Cc1nn(C2CCOCC2)c2ncc(Nc3n[nH]c4cccnc34)cc12 [Example 259, 3-methyl-N-(1H-pyrazolo[4,3-b]pyridin-3-yl)-1-tetrahydropyran-4-yl-pyrazolo[3,4-b]pyridin-5-amine] |
| < 4.52 | Cc1nn(CCCO)c2ncc(Nc3n[nH]c4cccnc34)cc12 [Example 255, 3-[3-methyl-5-(1H-pyrazolo[4,3-b]pyridin-3-ylamino)pyrazolo[3,4-b]pyridin-1-yl]propan-1-ol] |
